Patent US10294202B2, “Pyrrolidinones as herbicides” (FMC Corporation, priority 2013, dated 2019)

Tests used:
wheat = assay: Test A pre-/postemergence herbicide test; format: in vivo, Triticum aestivum; conditions: Postemergence
Procedure, shortened: (§1)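 Visual 0–100 ratings (100 = complete control) made about 10 days after treatment, greenhouse-held plants compared with untreated controls. Treatments: postemergence sprays on one- to two-leaf plants (2–10 cm tall) and preemergence directed soil sprays after planting in loam–sand, chemicals formulated in non-phytotoxic solvent containing surfactant.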

barnyardgrass = assay: Test B flooded paddy test; format: in vivo, Echinochloa crus-galli; conditions: 500 g ai/ha, Flood; scale of 0 to 100 where 0 is no effect and 100 is complete control
Procedure, shortened: (§2)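 Visual ratings from 0, meaning no effect, up to 100, meaning complete control, were made by comparison with untreated controls 13 to 15 days after treatment. Test compounds went straight into floodwater standing 3 cm over the soil of pots holding 2-leaf seedlings.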

oilseed rape = assay: Test C pre-/postemergence herbicide test; format: in vivo, Brassica napus
Procedure, shortened: (§3)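 Greenhouse plants scored visually against untreated controls 13–15 days after treatment, 0 = no effect, 100 = complete control. Test chemicals in a non-phytotoxic solvent with surfactant were applied either to soil (loam/sand) at planting or to foliage of 1- to 4-leaf plants, 2–18 cm tall.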

sedge, umbrella = assay: Test B flooded paddy test; format: in vivo, Cyperus difformis; conditions: 500 g ai/ha, Flood; scale of 0 to 100 where 0 is no effect and 100 is complete control
Procedure, shortened: as §2

rice = assay: Test B flooded paddy test; format: in vivo, Oryza sativa; conditions: 500 g ai/ha, Flood; scale of 0 to 100 where 0 is no effect and 100 is complete control
Procedure, shortened: as §2

oat, wild = assay: Test C pre-/postemergence herbicide test; format: in vivo, Avena fatua; conditions: Postemergence
Procedure, shortened: as §3

morningglory = assay: Test C pre-/postemergence herbicide test; format: in vivo, Ipomoea coccinea
Procedure, shortened: as §3

pigweed = assay: Test A pre-/postemergence herbicide test; format: in vivo, Amaranthus retroflexus
Procedure, shortened: as §1

ragweed = assay: Test C pre-/postemergence herbicide test; format: in vivo, Ambrosia elatior
Procedure, shortened: as §3

wheat (winter wheat) = assay: Test C pre-/postemergence herbicide test; format: in vivo, Triticum aestivum; conditions: for Plant response rating, Wheat: Postemergence; for Wheat plant response rating / Plant response rating (scale of 0 to 100), Wheat: Preemergence
Procedure, shortened: as §3

waterhemp = assay: Test C pre-/postemergence herbicide test; format: in vivo, Amaranthus rudis
Procedure, shortened: as §3

corn = assay: Test A pre-/postemergence herbicide test; format: in vivo, Zea mays; conditions: Postemergence
Procedure, shortened: as §1

[1] = 125 g ai/ha, visual rating on 0 to 100 scale (0 no effect, 100 complete control), approx. 10 days
[2] = 500 g ai/ha, 0 to 100 scale (0 no effect, 100 complete control)
[3] = Postemergence, 31 g ai/ha, scale 0 to 100 (0 no effect, 100 complete control)
[4] = Postemergence, 62 g ai/ha, scale 0 (no effect) to 100 (complete control)
[5] = Postemergence, 125 g ai/ha, scale 0 to 100 (0 no effect, 100 complete control)
[6] = Postemergence, 250 g ai/ha, scale 0 to 100 (0 no effect, 100 complete control)
[7] = Preemergence, 31 g ai/ha, scale 0 to 100, 0 is no effect and 100 is complete control
[8] = Preemergence, 62 g ai/ha, scale 0 to 100 (0 no effect, 100 complete control)
[9] = Preemergence, 125 g ai/ha, scale 0 to 100 (0 no effect, 100 complete control)
[10] = 31 g ai/ha, scale 0 to 100 (0 no effect, 100 complete control)
[11] = 62 g ai/ha, scale 0 (no effect) to 100 (complete control)
[12] = 125 g ai/ha, scale 0 to 100 (0 no effect, 100 complete control)
[13] = 250 g ai/ha, scale 0 to 100 (0 no effect, 100 complete control)
[14] = Postemergence, 125 g ai/ha, visual rating on 0 to 100 scale (0 no effect, 100 complete control), approx. 10 days
[15] = Postemergence, 500 g ai/ha, 0 to 100 scale (0 no effect, 100 complete control)
[16] = Preemergence, 125 g ai/ha, 0 to 100 scale where 0 is no effect and 100 is complete control
[17] = Preemergence, 500 g ai/ha, visual rating on 0 to 100 scale (0 no effect, 100 complete control)
[18] = 62 g ai/ha, scale 0 to 100 (0 no effect, 100 complete control)

SMILES: CN1CC(c2cccc(C(F)(F)F)c2)C(C(=O)Nc2cccc(F)c2F)C1=O (stereo not drawn) [Compound 305]
- Plant response rating, Wheat (wheat; [1]): 60
- Plant response rating, Wheat (wheat; [2]): 70
- Plant response rating, Barnyardgrass (barnyardgrass): 75
- Plant response rating, Oilseed Rape (oilseed rape; [3]): 0
- Plant response rating, Oilseed Rape (oilseed rape; [4]): 0
- Plant response rating, Oilseed Rape (oilseed rape; [5]): 0
- Plant response rating, Oilseed Rape (oilseed rape; [6]): 0
- Oilseed Rape plant response rating (oilseed rape; [7]): 20
- Oilseed Rape plant response rating (oilseed rape; [8]): 60
- Plant response rating, Oilseed Rape (oilseed rape; [9]): 80
- Plant response rating (scale of 0 to 100), Oilseed Rape (oilseed rape; Preemergence, 250 g ai/ha): 90
- Plant response rating, Sedge, Umbrella (sedge, umbrella): 0
- Plant response rating, Rice (rice): 15
- Plant response rating, Oat, Wild (oat, wild; [10]): 0
- Plant response rating, Oat, Wild (oat, wild; [11]): 0
- Plant response rating, Oat, Wild (oat, wild; [12]): 0
- Plant response rating, Oat, Wild (oat, wild; [13]): 30
- Plant response rating, Morningglory (morningglory; [3]): 25
- Plant response rating, Morningglory (morningglory; [4]): 20
- Plant response rating, Morningglory (morningglory; [5]): 75
- Plant response rating, Morningglory (morningglory; [6]): 20
- Morningglory plant response rating (morningglory; [7]): 0
- Morningglory plant response rating (morningglory; [8]): 30
- Plant response rating, Morningglory (morningglory; [9]): 40
- Plant response rating (scale of 0 to 100), Morningglory (morningglory; Preemergence, 250 g ai/ha): 65
- Plant response rating, Pigweed (pigweed; [14]): 60
- Plant response rating, Pigweed (pigweed; [15]): 70
- Plant response rating, Pigweed (pigweed; [16]): 0
- Pigweed plant response rating (pigweed; [17]): 40
- Plant response rating, Ragweed (ragweed; [3]): 0
- Plant response rating, Ragweed (ragweed; [4]): 0
- Plant response rating, Ragweed (ragweed; [5]): 40
- Plant response rating, Ragweed (ragweed; [6]): 45
- Ragweed plant response rating (ragweed; [7]): 0
- Ragweed plant response rating (ragweed; [8]): 15
- Plant response rating, Ragweed (ragweed; [9]): 35
- Plant response rating (scale of 0 to 100), Ragweed (ragweed; Preemergence, 250 g ai/ha): 75
- Plant response rating, Wheat (wheat (winter wheat); [10]): 0
- Plant response rating, Wheat (wheat (winter wheat); [11]): 0
- Plant response rating, Wheat (wheat (winter wheat); [12]): 0
- Plant response rating, Wheat (wheat (winter wheat); [13]): 5
- Wheat plant response rating (wheat (winter wheat); 31 g ai/ha, scale 0 to 100, 0 is no effect and 100 is complete control): 45
- Wheat plant response rating (wheat (winter wheat); [18]): 90
- Plant response rating (scale of 0 to 100), Wheat (wheat (winter wheat); 250 g ai/ha): 90
- Plant response rating, Waterhemp (waterhemp; [3]): 10
- Plant response rating, Waterhemp (waterhemp; [4]): 10
- Plant response rating, Waterhemp (waterhemp; [5]): 35
- Plant response rating, Waterhemp (waterhemp; [6]): 40
- Waterhemp plant response rating (waterhemp; [7]): 40
- Waterhemp plant response rating (waterhemp; [8]): 65
- Plant response rating, Waterhemp (waterhemp; [9]): 80
- Plant response rating (scale of 0 to 100), Waterhemp (waterhemp; Preemergence, 250 g ai/ha): 80
- Plant response rating, Corn (corn; [1]): 70
- Plant response rating, Corn (corn; [2]): 70

SMILES: CN1CC(c2ccc(C(F)(F)F)cc2)C(C(=O)Nc2cccc(F)c2F)C1=O (stereo not drawn) [Compound 306]
- Plant response rating, Wheat (wheat; [1]): 50
- Plant response rating, Wheat (wheat; [2]): 60
- Plant response rating, Barnyardgrass (barnyardgrass): 75
- Plant response rating, Oilseed Rape (oilseed rape; [3]): 0
- Plant response rating, Oilseed Rape (oilseed rape; [4]): 50
- Plant response rating, Oilseed Rape (oilseed rape; [5]): 40
- Plant response rating, Oilseed Rape (oilseed rape; [6]): 70
- Oilseed Rape plant response rating (oilseed rape; [7]): 50
- Oilseed Rape plant response rating (oilseed rape; [8]): 70
- Plant response rating, Oilseed Rape (oilseed rape; [9]): 75
- Plant response rating (scale of 0 to 100), Oilseed Rape (oilseed rape; Preemergence, 250 g ai/ha): 75
- Plant response rating, Sedge, Umbrella (sedge, umbrella): 0
- Plant response rating, Rice (rice): 50
- Plant response rating, Oat, Wild (oat, wild; [10]): 0
- Plant response rating, Oat, Wild (oat, wild; [11]): 0
- Plant response rating, Oat, Wild (oat, wild; [12]): 0
- Plant response rating, Oat, Wild (oat, wild; [13]): 5
- Plant response rating, Morningglory (morningglory; [3]): 0
- Plant response rating, Morningglory (morningglory; [4]): 35
- Plant response rating, Morningglory (morningglory; [5]): 65
- Plant response rating, Morningglory (morningglory; [6]): 5
- Morningglory plant response rating (morningglory; [7]): 0
- Morningglory plant response rating (morningglory; [8]): 35
- Plant response rating, Morningglory (morningglory; [9]): 35
- Plant response rating (scale of 0 to 100), Morningglory (morningglory; Preemergence, 250 g ai/ha): 35
- Plant response rating, Pigweed (pigweed; [14]): 70
- Plant response rating, Pigweed (pigweed; [15]): 80
- Plant response rating, Pigweed (pigweed; [16]): 80
- Pigweed plant response rating (pigweed; [17]): 90
- Plant response rating, Ragweed (ragweed; [3]): 60
- Plant response rating, Ragweed (ragweed; [4]): 55
- Plant response rating, Ragweed (ragweed; [5]): 80
- Plant response rating, Ragweed (ragweed; [6]): 85
- Ragweed plant response rating (ragweed; [8]): 75
- Plant response rating, Ragweed (ragweed; [9]): 75
- Plant response rating (scale of 0 to 100), Ragweed (ragweed; Preemergence, 250 g ai/ha): 80
- Plant response rating, Wheat (wheat (winter wheat); [10]): 0
- Plant response rating, Wheat (wheat (winter wheat); [11]): 0
- Plant response rating, Wheat (wheat (winter wheat); [12]): 0
- Plant response rating, Wheat (wheat (winter wheat); [13]): 0
- Wheat plant response rating (wheat (winter wheat); [18]): 50
- Plant response rating (scale of 0 to 100), Wheat (wheat (winter wheat); 250 g ai/ha): 85
- Plant response rating, Waterhemp (waterhemp; [3]): 65
- Plant response rating, Waterhemp (waterhemp; [4]): 65
- Plant response rating, Waterhemp (waterhemp; [5]): 80
- Plant response rating, Waterhemp (waterhemp; [6]): 80
- Waterhemp plant response rating (waterhemp; [8]): 85
- Plant response rating, Waterhemp (waterhemp; [9]): 85
- Plant response rating (scale of 0 to 100), Waterhemp (waterhemp; Preemergence, 250 g ai/ha): 90
- Plant response rating, Corn (corn; [1]): 50
- Plant response rating, Corn (corn; [2]): 70
